This assay addresses T1, hα4 and β1 integrins (Homo sapiens, UniProt P05556+P13612).
T1 construct: expressed in transfected cells; host or cells: CHO cells
The experiment in a line: In vitro inhibition of binding between CHO cells expressing hα4 and β1 integrins and Eu3+-hVCAM-1 D1D7-IgG. The note with it: for Ki: CHO cells expressing hα4 and β1 integrins, Eu3+-hVCAM-1 D1D7-IgG ligand, without HSA; for IC50: in the presence of 3% human serum albumin (HSA final concentration 3%). The procedure: CHO cells which forcibly expressed hα4 and β1 integrins through transfection thereof, were inoculated into a Costar 3599 plate (3×10^4 cells/100 μl/well), and cultured for two days. The cells in the wells were washed two times with buffer A*, and then Eu^3+-hVCAM-1 D1D7-IgG diluted with assay buffer** to 2 nM was added in an amount of 50 μl/well. The substance under test diluted with 26 DMSO-assay buffer (in the co-presence or absence of 6% human serum albumin) was added in an amount of 50 μl/well (adding separately diluted solution to the wells for performing Scatchard analysis), the contents were stirred for 5 minutes with a plate mixer, and then the plate was left to stand still for one hour at room temperature. The binding inhibitory activity in the presence of human serum albumin (HSA) was examined by diluting the specimen with 26 DMSO-assay buffer containing 6% HSA (SIGMA Corp., c/n A-1653), and adding the resultant (HSA final concentration 3%). After 30 to 60 minutes of the addition of specimen, the plate contents were washed 4 times with buffer A at 4° C., an enhancing reagent (DELFIA SA) was added in an amount of 100 μl/well, and the plate was shaken for 5 minutes using a plate mixer. Subsequently, the fluorescence intensity was measured with a time-resolved fluorometer (DELFIA Wallac). The IC50 of the substance under test (the concentration for 50% inhibition of the binding between CHO cells and Eu^3+-hVCAM-1 D1D7-IgG) was determined from the binding rate obtained from the calculating expression of [(FT−FNS)−(FI−FNS)]/[(FT−FNS)]×100. Here, FT represents the fluorescence intensity of a well not containing the substance under test; FNS represents the fluorescence intensity of a well not containing the substance under test and hVCAM-1 D1D7-IgG; and FI represents the fluorescence intensity of a well containing the substance under test. The Kd value which represents the strength of binding, and Bmax (maximum binding amount) were estimated to be in the range of 0.06 to 20 nM according to the Scatchard analysis method. The evaluation results of the Ki value of the substance under test, and of the IC50 value in the presence of 3% HSA are presented in Tables 2 to 7.
The Ki value was calculated according to the above-described expression. ([L] is the ligand concentration)
[* buffer A: 25 mM HEPES (pH 7.5), 150 mM NaCl, 1 mM Ca^2+, 1 mM Mg^2+, 4 mM Mn2+;
** assay buffer: 25 mM HEPES (pH=7.5), 150 mM NaCl, 1 mM Ca^2+, 1 mM Mg^2+, 4 mM Mn^2+, 0.1% BSA, 20 μM DTPA, with/without 6% ALBUMIN, HUMAN SERUM (C/N A-1653, SIGMA)]

Molecules are shown by their SMILES.

Data on 16 molecules can be found in patent US8129366B2, “VLA-4 inhibitory drug” (Daiichi Sankyo Company, Limited, priority 2005, dated 2012).

Broadly, the Ki is the equilibrium dissociation constant of an inhibitor or competing ligand from its target. A low value points to tighter binding. By IC50 is commonly meant the concentration needed to halve the response being measured.

T1 sequence (P13612 34-1032): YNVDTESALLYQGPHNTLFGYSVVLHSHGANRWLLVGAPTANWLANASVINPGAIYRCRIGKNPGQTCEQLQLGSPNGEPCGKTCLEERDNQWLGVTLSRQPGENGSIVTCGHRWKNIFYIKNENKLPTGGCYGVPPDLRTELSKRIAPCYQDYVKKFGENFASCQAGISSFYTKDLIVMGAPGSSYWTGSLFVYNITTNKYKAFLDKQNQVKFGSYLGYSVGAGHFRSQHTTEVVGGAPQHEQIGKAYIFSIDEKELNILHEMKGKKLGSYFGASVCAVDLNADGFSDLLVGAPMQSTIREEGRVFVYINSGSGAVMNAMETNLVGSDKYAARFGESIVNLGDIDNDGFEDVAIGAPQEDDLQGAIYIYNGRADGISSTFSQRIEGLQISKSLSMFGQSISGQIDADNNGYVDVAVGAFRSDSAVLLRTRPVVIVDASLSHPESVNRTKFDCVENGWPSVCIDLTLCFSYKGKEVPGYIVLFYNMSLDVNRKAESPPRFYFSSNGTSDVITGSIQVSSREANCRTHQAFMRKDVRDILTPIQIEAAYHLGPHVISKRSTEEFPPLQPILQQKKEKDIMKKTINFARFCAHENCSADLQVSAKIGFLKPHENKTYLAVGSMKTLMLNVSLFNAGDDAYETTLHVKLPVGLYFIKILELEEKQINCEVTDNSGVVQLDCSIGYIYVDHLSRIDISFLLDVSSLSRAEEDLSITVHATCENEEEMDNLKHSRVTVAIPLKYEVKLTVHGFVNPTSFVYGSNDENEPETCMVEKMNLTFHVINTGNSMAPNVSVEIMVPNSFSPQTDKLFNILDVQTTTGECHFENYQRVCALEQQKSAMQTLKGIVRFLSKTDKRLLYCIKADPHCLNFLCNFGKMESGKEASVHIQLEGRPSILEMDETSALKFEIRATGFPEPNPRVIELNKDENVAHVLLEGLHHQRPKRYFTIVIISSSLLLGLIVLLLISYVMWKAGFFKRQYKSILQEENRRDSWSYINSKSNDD
T1 sequence (P05556 21-798): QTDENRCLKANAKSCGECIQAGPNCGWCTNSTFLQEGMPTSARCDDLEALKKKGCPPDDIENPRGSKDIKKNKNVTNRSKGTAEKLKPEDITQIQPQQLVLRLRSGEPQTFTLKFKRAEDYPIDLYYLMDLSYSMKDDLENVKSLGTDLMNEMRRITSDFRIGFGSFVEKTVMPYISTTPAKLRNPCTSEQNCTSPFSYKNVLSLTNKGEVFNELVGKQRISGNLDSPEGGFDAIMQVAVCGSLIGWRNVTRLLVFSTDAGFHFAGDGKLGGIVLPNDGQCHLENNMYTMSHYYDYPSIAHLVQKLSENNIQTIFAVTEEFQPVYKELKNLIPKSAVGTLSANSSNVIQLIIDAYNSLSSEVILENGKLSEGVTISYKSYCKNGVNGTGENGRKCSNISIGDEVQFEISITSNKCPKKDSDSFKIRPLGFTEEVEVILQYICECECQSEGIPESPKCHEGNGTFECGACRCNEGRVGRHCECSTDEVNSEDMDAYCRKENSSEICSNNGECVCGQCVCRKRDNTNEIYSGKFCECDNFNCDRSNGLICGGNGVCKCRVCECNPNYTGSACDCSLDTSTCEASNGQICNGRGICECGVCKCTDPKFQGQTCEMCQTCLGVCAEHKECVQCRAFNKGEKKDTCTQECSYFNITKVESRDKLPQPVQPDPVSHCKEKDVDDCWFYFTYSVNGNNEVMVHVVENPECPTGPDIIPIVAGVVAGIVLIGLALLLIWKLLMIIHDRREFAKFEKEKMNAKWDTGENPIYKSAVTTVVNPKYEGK

Consider `O=C(Nc1cc(Cl)c(CC(=O)N2C[C@@H](N3CCCOCC3)C[C@H]2CO[C@H]2CC[C@H](C(=O)O)CC2)cc1Cl)c1coc2ccccc12` [Example 167, Trans-4-[1-[[4-[(benzo[b]furan-3-ylcarbonyl)amino]-2,5-dichlorophenyl]acetyl]-(4S)-([1,4]-oxazepan-4-yl)-(2S)-pyrrolidinylmethoxy]cyclohexanecarboxylic acid], for which the affinity, expressed as Ki, was 4.4 nM and the IC50 was determined as 19 nM.
On the same counts, the results for `O=C(Nc1cc(Cl)c(CC(=O)N2C[C@@H](N3CCCOCC3)C[C@H]2CO[C@H]2CC[C@H](C(=O)O)CC2)cc1Cl)c1csc2ccccc12` [Example 166, Trans-4-[1-[[4-[(benzo[b]thiophen-3-ylcarbonyl)amino]-2,5-dichlorophenyl]acetyl]-(4S)-([1,4]-oxazepan-4-yl)-(2S)-pyrrolidinylmethoxy]cyclohexanecarboxylic acid] are 1.7 nM and 8.2 nM.
On the same counts, the results for `O=C(Nc1cc(F)c(CC(=O)N2C[C@@H](N3CCCOCC3)C[C@H]2CO[C@H]2CC[C@H](C(=O)O)CC2)cc1Cl)c1coc2ccccc12` [Example 168, Trans-4-[1-[[4-[(benzo[b]furan-3-ylcarbonyl)amino]-5-chloro-2-fluorophenyl]acetyl]-(4S)-([1,4]-oxazepan-4-yl)-(2-S)-pyrrolidinylmethoxy]cyclohexanecarboxylic acid] are 2 nM and 9.4 nM.
On the same counts, the results for `C[C@@H]1CN([C@H]2C[C@@H](CO[C@H]3CC[C@H](C(=O)O)CC3)N(C(=O)Cc3ccc(NC(=O)c4csc5ccccc45)c(Cl)c3)C2)C[C@H](C)O1` [Example 92, Trans-4-[1-[[4-[(benzo[b]thiophen-3-ylcarbonyl)amino]-3-chlorophenyl]acetyl]-(4S)-(cis-2,6-dimethylmorpholin-4-yl)-(2S)-pyrrolidinylmethoxy]cyclohexanecarboxylic acid] are 1.2 nM and 10 nM.
Turning to `CO[C@H]1CN([C@H]2C[C@@H](CO[C@H]3CC[C@H](C(=O)O)CC3)N(C(=O)Cc3cc(Cl)c(NC(=O)c4coc5ccccc45)cc3F)C2)C[C@H]1OC` [Example 59, Trans-4-[1-[[4-[(benzo[b]furan-3-ylcarbonyl)amino]-5-chloro-2-fluorophenyl]acetyl]-(4S)-(cis-3,4-dimethoxypyrrolidin-1-yl)-(2S)-pyrrolidinylmethoxy]cyclohexanecarboxylic acid], the Ki came to 3 nM and the IC50 stood at 8.1 nM.
On the same counts, the results for `CC1CCCN1[C@H]1C[C@@H](CO[C@H]2CC[C@H](C(=O)O)CC2)N(C(=O)Cc2cc(Cl)c(NC(=O)c3csc4ccccc34)cc2F)C1` (stereo partly drawn) [Example 40, Trans-4-[1-[[4-[(benzo[b]thiophen-3-ylcarbonyl)amino]-5-chloro-2-fluorophenyl]acetyl]-(4S)-(2-methylpyrrolidin-1-yl)-(2S)-pyrrolidinylmethoxy]cyclohexanecarboxylic acid] are 2 nM and 9.1 nM.
Turning to `C[C@@H]1CN([C@H]2C[C@@H](CO[C@H]3CC[C@H](C(=O)O)CC3)N(C(=O)Cc3cc(Cl)c(NC(=O)c4csc5ccccc45)cc3Cl)C2)C[C@H](C)O1` [Example 82, Trans-4-[1-[[4-[(benzo[b]thiophen-3-ylcarbonyl)amino]-2,5-dichlorophenyl]acetyl]-(4S)-(cis-2,6-dimethylmorpholin-4-yl)-(2S)-pyrrolidinylmethoxy]cyclohexanecarboxylic acid], the Ki turned out to be 2.4 nM and the IC50 was found to be 18 nM.
On the same counts, the results for `CN1CCN([C@H]2C[C@@H](CO[C@H]3CC[C@H](C(=O)O)CC3)N(C(=O)Cc3cc(Cl)c(NC(=O)c4cn(C)c5ccccc45)cc3Cl)C2)CC1` [Example 112, Trans-4-[1-[[2,5-dichloro-4-[(1-methyl-1H-indol-3-ylcarbonyl)amino]phenyl]acetyl]-(4S)-(4-methylpiperazin-1-yl)-(2S)-pyrrolidinylmethoxy]cyclohexanecarboxylic acid] are 4.2 nM and 9.5 nM.
On the same counts, the results for `CN1CCN([C@H]2C[C@@H](CO[C@H]3CC[C@H](C(=O)O)CC3)N(C(=O)Cc3cc(Cl)c(NC(=O)c4csc5ccccc45)cc3Cl)C2)CC1=O` [Example 153, Trans-4-[1-[[4-[(benzo[b]thiophen-3-ylcarbonyl)amino]-2,5-dichlorophenyl]acetyl]-(4S)-(4-methyl-3-oxopiperazin-1-yl)-(2S)-pyrrolidinylmethoxy]cyclohexanecarboxylic acid] are 1.5 nM and 9.3 nM.
On the same counts, the results for `O=C(Nc1cc(Cl)c(CC(=O)N2C[C@@H](N3CCN(CC(F)(F)F)CC3)C[C@H]2CO[C@H]2CC[C@H](C(=O)O)CC2)cc1Cl)c1coc2ccccc12` [Example 125, Trans-4-[1-[[4-[(benzo[b]furan-3-ylcarbonyl)amino]-2,5-dichlorophenyl]acetyl]-(4S)-[4-(2,2,2-trifluoroethyl)piperazin-1-yl]-(2S)-pyrrolidinylmethoxy]cyclohexanecarboxylic acid] are 3.4 nM and 26 nM.
Turning to `Cn1cc(C(=O)Nc2cc(Cl)c(CC(=O)N3C[C@@H](N4CCN(C(=O)C(C)(C)C)CC4)C[C@H]3CO[C@H]3CC[C@H](C(=O)O)CC3)cc2Cl)c2ccccc21` [Example 149, Trans-4-[1-[[2,5-dichloro-4-[(1-methyl-1H-indol-3-ylcarbonyl)amino]phenyl]acetyl]-(4S)-(4-pivaloylpiperazin-1-yl)-(2S)-pyrrolidinylmethoxy]cyclohexanecarboxylic acid], the Ki worked out at 1.7 nM and the IC50 turned out to be 24 nM.
On the same counts, the results for `CO[C@H]1CN([C@H]2C[C@@H](CO[C@H]3CC[C@H](C(=O)O)CC3)N(C(=O)Cc3ccc(NC(=O)c4nn(C)c5ccccc45)c(Cl)c3)C2)C[C@H]1OC` [Example 62, Trans-4-[1-[[4-[(1-methyl-1H-indazol-3-ylcarbonyl)amino]-3-chlorophenyl]acetyl]-(4S)-(cis-3,4-dimethoxypyrrolidin-1-yl)-(2S)-pyrrolidinylmethoxy]cyclohexanecarboxylic acid] are 3.2 nM and 10 nM.
On the same counts, the results for `C[C@@H]1CN([C@H]2C[C@@H](CO[C@H]3CC[C@H](C(=O)O)CC3)N(C(=O)Cc3ccc(NC(=O)c4cn(C)c5ccccc45)c(Cl)c3)C2)C[C@H](C)O1` [Example 85, Trans-4-[1-[[3-chloro-4-[(1-methyl-1H-indol-3-ylcarbonyl)amino]phenyl]acetyl]-(4S)-(cis-2,6-dimethylmorpholin-4-yl)-(2S)-pyrrolidinylmethoxy]cyclohexanecarboxylic acid] are 2 nM and 9.2 nM.
On the same counts, the results for `C[C@@H]1CN([C@H]2C[C@@H](CO[C@H]3CC[C@H](C(=O)O)CC3)N(C(=O)Cc3cc(Cl)c(NC(=O)c4coc5ccccc45)cc3F)C2)C[C@H](C)O1` [Example 84, Trans-4-[1-[[4-[(benzo[b]furan-3-ylcarbonyl)amino]-5-chloro-2-fluorophenyl]acetyl]-(4S)-(cis-2,6-dimethylmorpholin-4-yl)-(2S)-pyrrolidinylmethoxy]cyclohexanecarboxylic acid] are 2.4 nM and 23 nM.
Turning to `O=C(Nc1cc(F)c(CC(=O)N2C[C@@H](N3CC(CF)C3)C[C@H]2CO[C@H]2CC[C@H](C(=O)O)CC2)cc1Cl)c1coc2ccccc12` [Example 13, Trans-4-[1-[[4-[(benzo[b]furan-3-ylcarbonyl)amino]-5-chloro-2-fluorophenyl]acetyl]-(4S)-[3-(fluoromethyl)azetidin-1-yl]-(2S)-pyrrolidinylmethoxy]cyclohexanecarboxylic acid], the Ki worked out at 7.7 nM and the IC50 was 64 nM.
On the same counts, the results for `COc1cc(CC(=O)N2C[C@@H](N3CCN(CC(F)(F)F)CC3)C[C@H]2CO[C@H]2CC[C@H](C(=O)O)CC2)ccc1NC(=O)c1cn(C)c2ccccc12` [Example 135, Trans-4-[1-[[3-methoxy-4-[(1-methyl-1H-indol-3-ylcarbonyl)amino]phenyl]acetyl]-(4S)-[4-(2,2,2-trifluoroethyl)piperazin-1-yl]-(2S)-pyrrolidinylmethoxy]cyclohexanecarboxylic acid] are 1.7 nM and 4.4 nM.
